Assay results: patent US20080021030A1, “Substituted Pyrazoles As Ppar Agonists” (priority 2003, published 2008)

Columns and labels:
[1] = target: T1, hPPAR gamma (Homo sapiens, UniProt P37231); test: Transient transfection (transactivation) assay in CV-1 cells, GAL4-PPAR LBD chimera, SPAP reporter; assay type: cell-based; conditions: read-out: EC50 μM HPPARγ
T1 construct: expressed in transfected cells; host or cells: CV-1 cells
T1 sequence (P37231 238-503 limits assumed): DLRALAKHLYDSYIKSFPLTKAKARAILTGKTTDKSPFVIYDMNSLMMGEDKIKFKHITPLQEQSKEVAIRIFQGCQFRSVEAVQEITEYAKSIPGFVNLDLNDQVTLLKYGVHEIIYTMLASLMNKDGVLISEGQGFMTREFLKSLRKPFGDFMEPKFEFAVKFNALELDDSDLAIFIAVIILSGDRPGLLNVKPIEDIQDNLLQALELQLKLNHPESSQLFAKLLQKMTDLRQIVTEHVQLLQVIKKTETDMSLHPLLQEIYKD
Description: Compounds were screened for functional potency in transient transfection assays in CV-1 cells for their ability to activate the PPAR subtypes (transactivation assay). A previously established chimeric receptor system was utilized to allow comparison of the relative transcriptional activity of the receptor subtypes on the same target gene and to prevent endogenous receptor activation from complicating the interpretation of results. […] The ligand binding domains for murine and human PPAR alpha, PPAR gamma, and PPAR delta were each fused to the yeast transcription factor GAL4 DNA binding domain. CV-1 cells were transiently transfected with expression vectors for the respective PPAR chimera along with a reporter construct containing five copies of the GAL4 DNA binding site driving expression of secreted placental alkaline phosphatase (SPAP) and beta-galactosidase. After 16 h, the medium was exchanged to DME medium supplemented with 10% delipidated fetal calf serum and the test compound at the appropriate concentration. After an additional 24 h, cell extracts were prepared and assayed for alkaline phosphatase and β-galactosidase activity.

[2] = target: T2, hPPAR alpha (Homo sapiens, UniProt Q07869); test: as above; assay type: cell-based; conditions: read-out: EC50 μM HPPARα
T2 construct: expressed in transfected cells; host or cells: CV-1 cells
T2 sequence (Q07869 239-466 limits assumed): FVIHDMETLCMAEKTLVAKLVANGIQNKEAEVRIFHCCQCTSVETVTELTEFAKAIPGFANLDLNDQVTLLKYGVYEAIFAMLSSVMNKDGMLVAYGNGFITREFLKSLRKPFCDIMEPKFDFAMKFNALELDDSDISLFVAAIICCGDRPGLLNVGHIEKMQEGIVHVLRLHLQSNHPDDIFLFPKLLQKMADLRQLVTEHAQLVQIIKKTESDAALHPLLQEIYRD
Description: (§1) Compounds were screened for functional potency in transient transfection assays in CV-1 cells for their ability to activate the PPAR subtypes (transactivation assay). A previously established chimeric receptor system was utilized to allow comparison of the relative transcriptional activity of the receptor subtypes on the same target gene and to prevent endogenous receptor activation from complicating the interpretation of results. See, for example, Lehmann, J. M.; Moore, L. B.; Smith-Oliver, T. A.; Wilkison, W. O.; Willson, T. M.; Kliewer, S. A., An antidiabetic thiazolidinedione is a high affinity ligand for peroxisome proliferator-activated receptor gamma (PPARgamma), J. Biol. Chem., 270, 12953-6 (1995). The ligand binding domains for murine and human PPAR alpha, PPAR gamma, and PPAR delta were each fused to the yeast transcription factor GAL4 DNA binding domain. CV-1 cells were transiently transfected with expression vectors for the respective PPAR chimera along with a reporter construct containing five copies of the GAL4 DNA binding site driving expression of secreted placental alkaline phosphatase (SPAP) and beta-galactosidase. After 16 h, the medium was exchanged to DME medium supplemented with 10% delipidated fetal calf serum and the test compound at the appropriate concentration. After an additional 24 h, cell extracts were prepared and assayed for alkaline phosphatase and β-galactosidase activity. Alkaline phosphatase activity was corrected for transfection efficiency using the beta-galactosidase activity as an internal standard (see, for example, Kliewer, S. A., et. al. Cell 83, 813-819 (1995)). Rosiglitazone (BRL 49653) was used as a positive control in the hPPAR gamma assay. The positive control in the hPPAR alpha assays was 2-4-[2-(3-[4-fluorophenyl]-1-heptylureido)ethyl]-phenoxy-(2-methyl propionic acid (WO 97/36579). The positive control for PPAR delta assays was 2-{2-methyl-4-[({4-methyl-2-{trifluoromethyl)phenyl]-1,3-thiazol-5-yl}methyl)sulfanyl]phenoxy}acetic acid (WO 01/00603). The positive control was (5-{4-[2-(Methyl-pyridin-2-yl-amino)-ethoxy]-benzyl}-thiazolidine-2,4-dione (J. Med. Chem. 1994, 37(23), 3977), for PPAR gamma.
(§2) Activities in three hPPAR subtypes are reported in the table and are expressed in micromolar.

[3] = target: T3, hPPAR delta (Homo sapiens, UniProt Q03181); test: as above; assay type: cell-based; conditions: read-out: EC50 μM HPPARδ
T3 construct: expressed in transfected cells; host or cells: CV-1 cells
T3 sequence (Q03181 211-439 limits assumed): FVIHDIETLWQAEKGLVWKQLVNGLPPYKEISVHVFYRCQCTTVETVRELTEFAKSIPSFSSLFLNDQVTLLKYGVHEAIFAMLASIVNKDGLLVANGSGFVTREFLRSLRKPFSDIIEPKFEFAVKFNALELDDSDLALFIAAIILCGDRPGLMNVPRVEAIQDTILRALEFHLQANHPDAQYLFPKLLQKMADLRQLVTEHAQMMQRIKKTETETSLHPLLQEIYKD
Description: as §1, §2

Row | SMILES | EC50 [1] [µM] | EC50 [2] [µM] | EC50 [3] [µM] | melting point
1 | Cc1cc(CNC(=O)c2cc(-c3ccc(C(C)(C)C)cc3)nn2C)cc(C)c1OC(C)(C)C(=O)O [Example 26, 2-{4-[({[3-(4-tert-butylphenyl)-1-methyl-1H-pyrazol-5-yl]carbonyl}amino)methyl]-2,6-dimethylphenoxy}-2-methylpropanoic acid] | 0.016 | 0.003 | 1 | > 122 °C
2 | Cc1cc(CNC(=O)c2cc(-c3ccc(CC(C)C)cc3)n(C)n2)cc(Cl)c1OC(C)(C)C(=O)O [Example 27, 2-{2-chloro-4-[({[5-(4-isobutylphenyl)-1-methyl-1H-pyrazol-3-yl]carbonyl}amino)methyl]-6-methylphenoxy}-2-methylpropanoic acid] | 0.031 | < 0.001 | 0.206 | 75 to 80 °C
3 | Cc1cc(CNC(=O)c2cc(-c3ccc(Br)cc3)n(C)n2)ccc1OC(C)(C)C(=O)O [Example 30, 2-({4-[({[5-(4-bromophenyl)-1-methyl-1H-pyrazol-3-yl]carbonyl}amino)methyl]-2-methylphenyl}oxy)-2-methylpropanoic acid] | 0.229 | 0.046 | 3.12 | 84 to 92 °C
4 | Cc1cc(CNC(=O)c2cc(-c3ccc(-c4ccoc4)cc3)n(C)n2)ccc1OC(C)(C)C(=O)O [Example 33, 2-[(4-{[({5-[4-(3-furanyl)phenyl]-1-methyl-1H-pyrazol-3-yl}carbonyl)amino]methyl}-2-methylphenyl)oxy]-2-methylpropanoic acid] |  | 0.004 | 1.64 | 102 °C
5 | Cc1cc(CNC(=O)c2cc(-c3ccc(-c4ccncc4)cc3)n(C)n2)ccc1OC(C)(C)C(=O)O [Example 34, 2-methyl-2-[(2-methyl-4-{[({1-methyl-5-[4-(4-pyridinyl)phenyl]-1H-pyrazol-3-yl}carbonyl)amino]methyl}phenyl)oxy]propanoic acid] |  | 0.734 | > 25 | 264 °C (dec.)
6 | Cc1cc(CNC(=O)c2cc(-c3ccc(-c4ccco4)cc3)n(C)n2)ccc1OC(C)(C)C(=O)O [Example 35, 2-[(4-{[({5-[4-(2-furanyl)phenyl]-1-methyl-1H-prazol-3-yl}carbonyl)amino]methyl}-2-methylphenyl)oxy]-2-methylpropanoic acid] | 0.054 | 0.024 | > 25 | 96 °C
7 | COCCn1nc(-c2ccc(C(C)(C)C)cc2)cc1C(=O)NCc1ccc(OC(C)(C)C(=O)O)c(C)c1 [Example 48, 2-[(4-{[({3-[4-(1,1-dimethylethyl)phenyl]-1-[2-(methyloxy)ethyl]-1H-pyrazol-5-yl}carbonyl)amino]methyl}-2-methylphenyl)oxy]-2-methylpropanoic acid] | 0.303 | 0.066 | 2.05 | 112 °C
8 | COCCn1nc(C(=O)NCc2ccc(OC(C)(C)C(=O)O)c(C)c2)cc1-c1ccc(C(C)(C)C)cc1 [Example 52, 2-[(4-{[({5-[4-(1,1-dimethylethyl)phenyl]-1-[2-(methyloxy)ethyl]-1H-pyrazol-3-yl}carbonyl)amino]methyl}-2-methylphenyl)oxy]-2-methylpropanoic acid] | 0.478 | 0.042 | > 25 | 65 °C
9 | Cc1cc(CNC(=O)c2cc(-c3ccc(C(C)(C)C)cc3)[nH]n2)ccc1OC(C)(C)C(=O)O [Example 53, 2-[(4-{[({5-[4-(1,1-dimethylethyl)phenyl]-1H-pyrazol-3-yl}carbonyl)amino]methyl}-2-methylphenyl)oxy]-2-methylpropanoic acid] | 0.269 | 0.383 | > 25 | 100 °C
10 | C=CCn1nc(C(=O)NCc2ccc(OC(C)(C)C(=O)O)c(C)c2)cc1-c1ccc(C(C)(C)C)cc1 [Example 62, 2-({4-[({[5-[4-(1,1-dimethylethyl)phenyl]-1-(2-propen-1-yl)-1H-pyrazol-3-yl]carbonyl}amino)methyl]-2-methylphenyl}oxy)-2-methylpropanoic acid] | 0.069 | 0.032 | > 25 | 

More lines, in order of falling EC50 [2], values ahead:

Row | EC50 [1] [µM] | EC50 [2] [µM] | EC50 [3] [µM] | melting point | SMILES
11 | 1.47 | 0.589 | > 25 | 88 °C | Cc1cc(CNC(=O)c2cc(-c3cccc(-c4ccccc4)c3)nn2C)ccc1OC(C)(C)C(=O)O [Example 28, 2-[4-({[(3-biphenyl-3-yl-1-methyl-1H-pyrazol-5-yl)carbonyl]amino}methyl)-2-methylphenoxy]-2-methylpropanoic acid]
12 | 0.052 | 0.257 | 1.17 | 116 °C | Cc1cc(CNC(=O)c2cc(-c3ccc(C(C)(C)C)cc3)nn2CC(=O)c2ccccc2)ccc1OC(C)(C)C(=O)O [Example 49, 2-({4-[({[3-[4-(1,1-dimethylethyl)phenyl]-1-(2-oxo-2-phenylethyl)-1H-pyrazol-5-yl]carbonyl}amino)methyl]-2methylphenyl}oxy)-2-methylpropanoic acid]
13 | 0.037 | 0.176 | 5.17 | 90 to 100 °C | Cc1cc(CNC(=O)c2cc(-c3ccc(-c4ccccc4C)cc3)nn2C)ccc1OC(C)(C)C(=O)O [Example 36, 2-methyl-2-{2-methyl-4-[({[1-methyl-3-(2′-methylbiphenyl-4-yl)-1H-pyrazol-5-yl]carbonyl}amino)methyl]phenoxy}propanoic acid]
14 | 0.023 | 0.015 | > 25 | 92 °C | Cc1cc(CNC(=O)c2cc(-c3ccc(-c4cccs4)cc3)n(C)n2)ccc1OC(C)(C)C(=O)O [Example 32, 2-methyl-2-[(2-methyl-4-{[({1-methyl-5-[4-(2-thienyl)phenyl]-1H-pyrazol-3-yl}carbonyl)amino]methyl}phenyl)oxy]propanoic acid]
15 | 0.072 | 0.01 | > 25 | 74 °C | CCCCc1ccc(-c2cc(C(=O)NCc3cc(C)c(OC(C)(C)C(=O)O)c(Cl)c3)nn2C)cc1 [Example 38, 2-{4-[({[5-(4-butylphenyl)-1-methyl-1H-pyrazol-3-yl]carbonyl}amino)methyl]-2-chloro-6-methylphenoxy}-2-methylpropanoic acid]
16 | 0.021 | 0.006 | 0.449 | 72 °C | CCCCc1ccc(-c2cc(C(=O)NCc3cc(C)c(OC(C)(C)C(=O)O)c(C)c3)nn2C)cc1 [Example 37, 2-{4-[({[5-(4-butylphenyl)-1-methyl-1H-pyrazol-3-yl]carbonyl}amino)methyl]-2,6-dimethylphenoxy}-2-methylpropanoic acid]
